These results are taken from patent US8846729B2, “2-thio-1,3,4-oxadiazoles azetidine derivatives as sphingosine-1 phosphate receptors modulators” (Allergan, Inc., priority 2012, dated 2014).

T1 sequence (P21453 whole entry): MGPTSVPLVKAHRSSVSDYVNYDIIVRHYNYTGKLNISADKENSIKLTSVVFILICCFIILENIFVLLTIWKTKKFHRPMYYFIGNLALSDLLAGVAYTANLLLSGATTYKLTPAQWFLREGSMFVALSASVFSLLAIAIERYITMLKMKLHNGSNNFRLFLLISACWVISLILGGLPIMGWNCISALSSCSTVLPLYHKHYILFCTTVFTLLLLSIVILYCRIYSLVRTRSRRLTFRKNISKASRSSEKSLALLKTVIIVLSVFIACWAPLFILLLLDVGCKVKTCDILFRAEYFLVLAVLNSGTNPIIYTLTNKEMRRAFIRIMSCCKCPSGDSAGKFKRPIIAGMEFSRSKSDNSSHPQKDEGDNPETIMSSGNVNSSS

This test has as its target T1, human S1P1 receptor (Homo sapiens, UniProt P21453).
T1 construct: expressed in transfected cells; membranes used
Description: GTP γ35S binding assay for S1P1 activity. The class given is biochemical. To be noted: membranes of cells stably expressing S1P1 receptor, agonist potency. How it is done: Compounds were synthesized and tested for S1P1 activity using the GTP γ^355 binding assay. These compounds may be assessed for their ability to activate or block activation of the human S1P1 receptor in cells stably expressing the S1P1 receptor.
[…] binding was measured in the medium containing (mM) HEPES 25, pH 7.4, MgCl2 10, NaCl 100, dithitothreitol 0.5, digitonin 0.003%, 0.2 nM GTP γ^35S, and 5 μg membrane protein in a volume of 150 μl. Test compounds were included in the concentration range from 0.08 to 5,000 nM unless indicated otherwise. Membranes were incubated with 100 μM 5′-adenylylimmidodiphosphate for 30 min, and subsequently with 10 μM GDP for 10 min on ice. Drug solutions and membrane were mixed, and then reactions were initiated by adding GTP γ^355 and continued for 30 min at 25° C. Reaction mixtures were filtered over Whatman GF/B filters under vacuum, and washed three times with 3 mL of ice-cold buffer (HEPES 25, pH7.4, MgCl2 10 and NaCl 100). Filters were dried and mixed with scintillant, and counted for ^35S activity using a β-counter. Agonist-induced GTP γ^355 binding was obtained by subtracting that in the absence of agonist. Binding data were analyzed using a non-linear regression method. In case of antagonist assay, the reaction mixture contained 10 nM […] in the presence of test antagonist at concentrations ranging from 0.08 to 5000 nM.
For orientation: GTPγS resists hydrolysis and so accumulates on activated G proteins.
For the compound `O=C(O)C1CN(Cc2ccc(-c3nnc(SCc4cccc(Cl)c4F)o3)cc2)C1` [Compound 1, 1-(4-{5-[(3-Chloro-2-fluorobenzyl)thio]-1,3,4-oxadiazol-2-yl}benzyl)azetidine-3-carboxylic acid], the 50% effective concentration (EC50) (in general, the concentration that produces a half-maximal response) came out at 0.0186 µM.

With `Cc1cc(CN2CC(C(=O)O)C2)ccc1-c1nnc(SC(C)c2cccc([N+](=O)[O-])c2)o1` (stereo not drawn) [Compound 2, 1-[3-Methyl-4-(5-{[1-(3-nitrophenyl)ethyl]thio}-1,3,4-oxadiazol-2-yl)benzyl]azetidine-3-carboxylic acid], the EC50 stood at 0.0167 µM.

Regarding `CCC(Sc1nnc(-c2ccc(CN3CC(C(=O)O)C3)cc2C)o1)c1cccc([N+](=O)[O-])c1` (stereo not drawn) [Compound 3, 1-[3-Methyl-4-(5-{[1-(3-nitrophenyl)propyl]thio}-1,3,4-oxadiazol-2-yl)benzyl]azetidine-3-carboxylic acid], the midpoint of the response, the EC50, lay at 0.0609 µM.
